From patent publication US11279681B2, “3-alkyl bicyclic [4,5,0] hydroxamic acids as HDAC inhibitors” (Valo Health, Inc., priority 2015, dated 2022)

The compounds below were run against T1, HDAC6 (Homo sapiens, UniProt Q9UBN7) (assay: In vitro histone deacetylase assay: enzymatic HDAC6 electrophoretic mobility shift assay). Conditions: full length human recombinant HDAC6, 1 nM enzyme, 2 μM peptide substrate RHKK(Ac)-NH2, 25° C.; read-out: Inhibitory Concentration (IC50) Values for Representative Compounds against HDAC6, Activity Range.
T1 sequence (Q9UBN7 1-1215): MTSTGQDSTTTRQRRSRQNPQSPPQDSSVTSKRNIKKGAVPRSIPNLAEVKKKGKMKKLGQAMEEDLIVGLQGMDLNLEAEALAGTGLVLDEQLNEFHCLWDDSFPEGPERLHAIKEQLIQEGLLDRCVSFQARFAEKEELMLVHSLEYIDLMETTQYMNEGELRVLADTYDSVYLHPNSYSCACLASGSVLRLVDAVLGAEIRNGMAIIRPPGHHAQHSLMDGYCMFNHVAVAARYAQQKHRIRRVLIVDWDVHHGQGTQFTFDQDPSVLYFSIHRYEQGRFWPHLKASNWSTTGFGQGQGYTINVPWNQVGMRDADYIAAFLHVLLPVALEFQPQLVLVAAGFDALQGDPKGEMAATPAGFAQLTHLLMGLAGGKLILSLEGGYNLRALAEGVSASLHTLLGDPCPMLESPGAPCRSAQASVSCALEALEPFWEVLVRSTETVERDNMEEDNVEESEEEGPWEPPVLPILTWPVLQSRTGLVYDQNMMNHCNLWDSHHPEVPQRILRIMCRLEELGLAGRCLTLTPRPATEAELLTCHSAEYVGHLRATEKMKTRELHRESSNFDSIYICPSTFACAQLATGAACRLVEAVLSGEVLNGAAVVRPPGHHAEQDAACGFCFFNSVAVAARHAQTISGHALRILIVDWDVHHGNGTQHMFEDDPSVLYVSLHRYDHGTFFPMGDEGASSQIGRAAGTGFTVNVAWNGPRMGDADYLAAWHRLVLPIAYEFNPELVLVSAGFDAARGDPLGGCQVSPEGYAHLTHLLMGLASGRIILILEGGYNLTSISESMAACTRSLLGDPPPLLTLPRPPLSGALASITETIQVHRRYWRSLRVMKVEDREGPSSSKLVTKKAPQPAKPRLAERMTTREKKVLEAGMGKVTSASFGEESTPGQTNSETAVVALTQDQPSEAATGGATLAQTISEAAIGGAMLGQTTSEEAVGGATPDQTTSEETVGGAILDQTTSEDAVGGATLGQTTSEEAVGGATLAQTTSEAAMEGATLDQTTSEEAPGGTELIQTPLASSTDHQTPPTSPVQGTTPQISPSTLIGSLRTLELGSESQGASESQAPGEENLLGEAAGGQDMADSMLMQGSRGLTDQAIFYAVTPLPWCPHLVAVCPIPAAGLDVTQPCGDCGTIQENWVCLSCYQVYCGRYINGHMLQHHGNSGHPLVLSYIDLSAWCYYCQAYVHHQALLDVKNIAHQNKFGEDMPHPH
Type: biochemical

Which IC50 does the source give for `C[C@H]1COc2cc(C(=O)NO)ccc2CN1c1ccc(F)cc1` [(S)-4-(4-fluorophenyl)-N-hydroxy-3-methyl-2,3,4,5-tetrahydrobenzo[f][1,4]oxazepine-8-carboxamide] here?
The IC50 was at most 100 nM.

Which IC50 does the source give for `C[C@H]1COc2cc(C(=O)NO)ccc2CN1C(=O)N1C[C@H]2CC[C@H](C1)O2` [(S)-4-((1R,5R)-8-oxa-3-azabicyclo[3.2.1]octane-3-carbonyl)-N-hydroxy-3-methyl-2,3,4,5-tetrahydrobenzo[f][1,4]oxazepine-8-carboxamide] here?
Its IC50 is at most 100 nM.

Which IC50 does the source give for `C[C@H]1COc2cc(C(=O)NO)ccc2CN1C(=O)N1C[C@@H]2CC[C@@H](C1)O2` [(S)-4-((1S,5S)-8-oxa-3-azabicyclo[3.2.1]octane-3-carbonyl)-N-hydroxy-3-methyl-2,3,4,5-tetrahydrobenzo[f][1,4]oxazepine-8-carboxamide] here?
Its IC50 is at most 100 nM.

`C[C@H]1COc2cc(C(=O)NO)ccc2CN1S(=O)(=O)c1ccc(F)cc1` [(S)-4-((4-fluorophenyl)sulfonyl)-N-hydroxy-3-methyl-2,3,4,5-tetrahydrobenzo[f][1,4]oxazepine-8-carboxamide] was tested. Which IC50 did it give?
The IC50 was 100 to 500 nM.

With `C[C@H]1COc2cc(C(=O)NO)ccc2CN1C(=O)N1CCC1` [(S)-4-(azetidine-1-carbonyl)-N-hydroxy-3-methyl-2,3,4,5-tetrahydrobenzo[f][1,4]oxazepine-8-carboxamide] as the compound, how does the IC50 read?
The IC50 was at most 100 nM.

How did the IC50 turn out when `C[C@H]1COc2cc(C(=O)NO)ccc2CN1CC1CCC1` [(S)-4-(cyclobutylmethyl)-N-hydroxy-3-methyl-2,3,4,5-tetrahydrobenzo[f][1,4]oxazepine-8-carboxamide] was run?
Its IC50 is at most 100 nM.

With `C[C@H]1COc2cc(C(=O)NO)ccc2CN1CC1CCCCC1` [(S)-4-(cyclohexylmethyl)-N-hydroxy-3-methyl-2,3,4,5-tetrahydrobenzo[f][1,4]oxazepine-8-carboxamide] as the compound, how does the IC50 read?
Its IC50 is at most 100 nM.

`C[C@H]1COc2cc(C(=O)NO)ccc2CN1CC1CCCC1` [(S)-4-(cyclopentylmethyl)-N-hydroxy-3-methyl-2,3,4,5-tetrahydrobenzo[f][1,4]oxazepine-8-carboxamide] was tested. Which IC50 did it give?
The IC50 was at most 100 nM.

How did the IC50 turn out when `C[C@H]1COc2cc(C(=O)NO)ccc2CN1CC1CC1` [(S)-4-(cyclopropylmethyl)-N-hydroxy-3-methyl-2,3,4,5-tetrahydrobenzo[f][1,4]oxazepine-8-carboxamide] was run?
Its IC50 is at most 100 nM.

Which IC50 does the source give for `CCS(=O)(=O)N1Cc2ccc(C(=O)NO)cc2OC[C@@H]1C` [(S)-4-(ethylsulfonyl)-N-hydroxy-3-methyl-2,3,4,5-tetrahydrobenzo[f][1,4]oxazepine-8-carboxamide] here?
The IC50 was at most 100 nM.

How did the IC50 turn out when `C[C@H]1COc2cc(C(=O)NO)ccc2CN1C1CCCC1` [(S)-4-cyclopentyl-N-hydroxy-3-methyl-2,3,4,5-tetrahydrobenzo[f][1,4]oxazepine-8-carboxamide] was run?
Its IC50 is 100 to 500 nM.

How did the IC50 turn out when `CCN1Cc2ccc(C(=O)NO)cc2OC[C@@H]1C` [(S)-4-ethyl-N-hydroxy-3-methyl-2,3,4,5-tetrahydrobenzo[f][1,4]oxazepine-8-carboxamide] was run?
Its IC50 is 100 to 500 nM.

`C[C@H]1COc2cc(C(=O)NO)ccc2CN1C(=O)NC1CCCCC1` [(S)-N4-cyclohexyl-N8-hydroxy-3-methyl-2,3-dihydrobenzo[f][1,4]oxazepine-4,8(5H)-dicarboxamide] was tested. Which IC50 did it give?
Its IC50 is at most 100 nM.

How did the IC50 turn out when `COC[C@@H]1CN(C(=O)Nc2ccc(OC)cc2)Cc2ccc(C(=O)NO)cc2O1` [(S)-N8-hydroxy-2-(methoxymethyl)-N4-(4-methoxyphenyl)-2,3-dihydrobenzo[f][1,4]oxazepine-4,8(5H)-dicarboxamide] was run?
Its IC50 is 100 to 500 nM.

For `C[C@H]1COc2cc(C(=O)NO)ccc2CN1C(=O)Nc1ccccn1` [(S)-N8-hydroxy-3-methyl-N4-(pyridin-2-yl)-2,3-dihydrobenzo[f][1,4]oxazepine-4,8(5H)-dicarboxamide], which IC50 is on record?
Its IC50 is at most 100 nM.

For `C[C@H]1COc2cc(C(=O)NO)ccc2CN1C(=O)Nc1cccnc1` [(S)-N8-hydroxy-3-methyl-N4-(pyridin-3-yl)-2,3-dihydrobenzo[f][1,4]oxazepine-4,8(5H)-dicarboxamide], which IC50 is on record?
Its IC50 is at most 100 nM.

With `C[C@H]1COc2cc(C(=O)NO)ccc2CN1C(=O)Nc1ccncc1` [(S)-N8-hydroxy-3-methyl-N4-(pyridin-4-yl)-2,3-dihydrobenzo[f][1,4]oxazepine-4,8(5H)-dicarboxamide] as the compound, how does the IC50 read?
Its IC50 is at most 100 nM.

`C[C@H]1COc2cc(C(=O)NO)ccc2CN1C(=O)NC1CCOCC1` [(S)-N8-hydroxy-3-methyl-N4-(tetrahydro-2H-pyran-4-yl)-2,3-dihydrobenzo[f][1,4]oxazepine-4,8(5H)-dicarboxamide] was tested. Which IC50 did it give?
The IC50 was at most 100 nM.

For `C[C@H]1COc2cc(C(=O)NO)ccc2CN1C(=O)Nc1ccccc1` [(S)-N8-hydroxy-3-methyl-N4-phenyl-2,3-dihydrobenzo[f][1,4]oxazepine-4,8(5H)-dicarboxamide], which IC50 is on record?
Its IC50 is at most 100 nM.

How did the IC50 turn out when `C[C@H]1COc2cc(C(=O)NO)ccc2CN1C(=O)N(C)C1CCOCC1` [(S)-N8-hydroxy-N4,3-dimethyl-N4-(tetrahydro-2H-pyran-4-yl)-2,3-dihydrobenzo[f][1,4]oxazepine-4,8(5H)-dicarboxamide] was run?
Its IC50 is at most 100 nM.

Which IC50 does the source give for `C[C@H]1COc2cc(C(=O)NO)ccc2CN1C(=O)N(C)c1ccccc1` [(S)-N8-hydroxy-N4,3-dimethyl-N4-phenyl-2,3-dihydrobenzo[f][1,4]oxazepine-4,8(5H)-dicarboxamide] here?
Its IC50 is 100 to 500 nM.

Which IC50 does the source give for `C[C@H]1COc2cc(C(=O)NO)ccc2CN1C(=O)N(C)C` [(S)-N8-hydroxy-N4,N4,3-trimethyl-2,3-dihydrobenzo[f][1,4]oxazepine-4,8(5H)-dicarboxamide] here?
The IC50 was at most 100 nM.

`COCCNC(=O)N1Cc2ccc(C(=O)NO)cc2OC[C@@H]1C` [(S)-N8-hydroxy-N4-(2-methoxyethyl)-3-methyl-2,3-dihydrobenzo[f][1,4]oxazepine-4,8(5H)-dicarboxamide] was tested. Which IC50 did it give?
Its IC50 is at most 100 nM.

`COc1ccc(NC(=O)N2Cc3ccc(C(=O)NO)cc3O[C@@H](c3ccccc3)C2)cc1` [(S)-N8-hydroxy-N4-(4-methoxyphenyl)-2-phenyl-2,3-dihydrobenzo[f][1,4]oxazepine-4,8(5H)-dicarboxamide] was tested. Which IC50 did it give?
The IC50 was at most 100 nM.

Which IC50 does the source give for `COC[C@H]1COc2cc(C(=O)NO)ccc2CN1c1ccccc1C` [(S)-N-hydroxy-3-(methoxymethyl)-4-(o-tolyl)-2,3,4,5-tetrahydrobenzo[f][1,4]oxazepine-8-carboxamide] here?
The IC50 was at most 100 nM.

For `COC[C@H]1COc2cc(C(=O)NO)ccc2CN1C` [(S)-N-hydroxy-3-(methoxymethyl)-4-methyl-2,3,4,5-tetrahydrobenzo[f][1,4]oxazepine-8-carboxamide], which IC50 is on record?
Its IC50 is at most 100 nM.

Which IC50 does the source give for `COC[C@H]1COc2cc(C(=O)NO)ccc2CN1c1ccccc1` [(S)-N-hydroxy-3-(methoxymethyl)-4-phenyl-2,3,4,5-tetrahydrobenzo[f][1,4]oxazepine-8-carboxamide] here?
The IC50 was at most 100 nM.

Which IC50 does the source give for `CC(C)[C@H]1COc2cc(C(=O)NO)ccc2CN1c1ccccn1` [(S)-N-hydroxy-3-isopropyl-4-(pyridin-2-yl)-2,3,4,5-tetrahydrobenzo[f][1,4]oxazepine-8-carboxamide] here?
The IC50 was at most 100 nM.

Which IC50 does the source give for `CC(C)[C@H]1COc2cc(C(=O)NO)ccc2CN1c1cccnc1` [(S)-N-hydroxy-3-isopropyl-4-(pyridin-3-yl)-2,3,4,5-tetrahydrobenzo[f][1,4]oxazepine-8-carboxamide] here?
Its IC50 is at most 100 nM.

With `CC(C)[C@H]1COc2cc(C(=O)NO)ccc2CN1c1ccncc1` [(S)-N-hydroxy-3-isopropyl-4-(pyridin-4-yl)-2,3,4,5-tetrahydrobenzo[f][1,4]oxazepine-8-carboxamide] as the compound, how does the IC50 read?
Its IC50 is over 500 nM.

With `C[C@H]1COc2cc(C(=O)NO)ccc2CN1CCN1CCOCC1` [(S)-N-hydroxy-3-methyl-4-(2-morpholinoethyl)-2,3,4,5-tetrahydrobenzo[f][1,4]oxazepine-8-carboxamide] as the compound, how does the IC50 read?
The IC50 was 100 to 500 nM.

For `C[C@H]1COc2cc(C(=O)NO)ccc2CN1c1cccc(C(F)(F)F)c1` [(S)-N-hydroxy-3-methyl-4-(3-(trifluoromethyl)phenyl)-2,3,4,5-tetrahydrobenzo[f][1,4]oxazepine-8-carboxamide], which IC50 is on record?
Its IC50 is 100 to 500 nM.

With `C[C@H]1COc2cc(C(=O)NO)ccc2CN1CCCN1CCOCC1` [(S)-N-hydroxy-3-methyl-4-(3-morpholinopropyl)-2,3,4,5-tetrahydrobenzo[f][1,4]oxazepine-8-carboxamide] as the compound, how does the IC50 read?
Its IC50 is 100 to 500 nM.

For `C[C@H]1COc2cc(C(=O)NO)ccc2CN1c1ccc(OC(F)(F)F)cc1` [(S)-N-hydroxy-3-methyl-4-(4-(trifluoromethoxy)phenyl)-2,3,4,5-tetrahydrobenzo[f][1,4]oxazepine-8-carboxamide], which IC50 is on record?
Its IC50 is 100 to 500 nM.
